Results from ChEMBL document CHEMBL3880396, “Calcium channel inhibitors comprising benzhydril spaced from piperazine” (2004).

Assay: Selectivity ratio of IC50 for alpha1A/alpha2delta/beta1b P/Q-type calcium channel (unknown origin) to IC50 for rat brain […] N-type calcium channel

SMILES	Ratio IC50
O=C(CC(c1ccccc1)c1ccccc1)N1CCN(C(c2ccccc2)c2ccc(Cl)cc2)CC1 (configuration not stated)	28
CC(C)(C)c1cc(C(c2ccccc2)N2CCN(C(=O)CC(c3ccccc3)c3ccccc3)CC2)cc(C(C)(C)C)c1O (configuration not stated)	> 40
O=C(CC(c1ccccc1)c1ccccc1)N1CCN(C(c2ccccc2)c2ccc(C(F)(F)F)cc2)CC1 (configuration not stated)	5.1
O=C(O)C1CN(C(c2ccccc2)c2ccccc2)CCN1C(=O)CC(c1ccccc1)c1ccccc1 (configuration not stated)	9.4
CCOC(=O)C1CN(C(c2ccccc2)c2ccccc2)CCN1C(=O)CC(c1ccccc1)c1ccccc1 (configuration not stated)	69
COc1ccc(C(c2ccc(C(F)(F)F)cc2)N2CCN(C(=O)CC(c3ccccc3)c3ccccc3)CC2)cc1 (configuration not stated)	41

Assay: Selectivity ratio of IC50 for alpha1C/alpha2delta/beta1b L-type calcium channel (unknown origin) to IC50 for rat brain […] N-type calcium channel

SMILES	Ratio IC50
O=C(CC(c1ccccc1)c1ccccc1)N1CCN(C(c2ccccc2)c2ccc(Cl)cc2)CC1 (configuration not stated)	831
CC(C)(C)c1cc(C(c2ccccc2)N2CCN(C(=O)CC(c3ccccc3)c3ccccc3)CC2)cc(C(C)(C)C)c1O (configuration not stated)	> 40
O=C(CC(c1ccccc1)c1ccccc1)N1CCN(C(c2ccccc2)c2ccc(C(F)(F)F)cc2)CC1 (configuration not stated)	103
O=C(O)C1CN(C(c2ccccc2)c2ccccc2)CCN1C(=O)CC(c1ccccc1)c1ccccc1 (configuration not stated)	103
CCOC(=O)C1CN(C(c2ccccc2)c2ccccc2)CCN1C(=O)CC(c1ccccc1)c1ccccc1 (configuration not stated)	2880
COc1ccc(C(c2ccc(C(F)(F)F)cc2)N2CCN(C(=O)CC(c3ccccc3)c3ccccc3)CC2)cc1 (configuration not stated)	> 54
